Common to all, as to assay type: cell-based
One assay has as its system Hela. Nature of the assay: Antiproliferative activity (MTS assay), Hela. Particulars: Homo sapiens, HeLa, 96 h, Hela cells. A digest of the protocol: (§1)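 Cells were dosed in triplicate after overnight attachment and incubated 96 h at 37 °C, with DMSO controls. Viability was read by MTS absorbance. Values come from concentration-response curves by linear regression, with GI50 corrected for time-zero cell count as [1−(T−T0)/(C−T0)]×100.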

The next assay deals with K562. The experiment in a line: Antiproliferative activity (MTS assay), K562. Particulars: Homo sapiens, K562, 96 h, K562 cells. The gist of the method:
as §1

The subject of the next assay is MDA-MB-468. Nature of the assay: Antiproliferative activity (MTS assay), MDA-MB-468. Particulars: Homo sapiens, MDA-MB-468, 96 h, MDA-MB-468 cells. A digest of the protocol: as §1
Another assay concerns MDA-MB-231. Nature of the assay: Antiproliferative activity (MTS assay), MDA-MB-231. Particulars: Homo sapiens, MDA-MB-231, 96 h, MDA-MB-231 cells. The gist of the method:
as §1

As to `Cc1ccc(Sc2cc(C)c(-c3csc(NC(=O)c4ccncc4)n3)c(C)c2)cc1` [Compound 116], the IC50 is 150 nM with Hela, 110 nM in the assay with K562, 130 nM in the assay with MDA-MB-468 and 120 nM in the assay on MDA-MB-231.
The matching figures for `Cc1cc(Cc2ccccc2)cc(C)c1-c1csc(NC(=O)c2ccncc2)n1` [Compound 118]: 270 nM, 150 nM, 220 nM and 240 nM.
On to `COc1ccc(Oc2cc(C)c(-c3csc(NC(=O)c4cc[n+]([O-])cc4)n3)c(C)c2)cc1` [Compound 120], for which the IC50 was determined as 160 nM in the assay with Hela, 180 nM in the assay on K562, 250 nM in the assay on MDA-MB-468 and 220 nM in the assay with MDA-MB-231.
For `COc1ccc(Oc2cc(C)c(-c3csc(NC(=O)c4ccncc4C)n3)c(C)c2)cc1` [Compound 121] the same measures were 900 nM, 320 nM, 810 nM and 440 nM.
For the compound `Cc1cc(Nc2ccc(Br)cc2)cc(C)c1-c1csc(NC(=O)c2ccncc2)n1` [Compound 122], the IC50 turned out to be 2130 nM in the assay on Hela, 360 nM in the assay on K562, 1220 nM with MDA-MB-468 and 720 nM in the assay with MDA-MB-231.
The matching figures for `Cc1cc(Nc2ccccc2)c(Br)c(C)c1-c1csc(NC(=O)c2ccncc2)n1` [Compound 123]: 870 nM, 330 nM, 880 nM and 610 nM.
The matching figures for `COc1ccc(Oc2cc(C)c(-c3csc(NC(=O)c4ccnc([N+](=O)[O-])c4)n3)c(C)c2)cc1` [Compound 124]: 330 nM, 120 nM, 530 nM and 220 nM.
The matching figures for `CSc1cc(C)c(-c2csc(NC(=O)c3ccncc3)n2)c(C)c1` [Compound 125]: 270 nM, 180 nM, 250 nM and 160 nM.
For `COc1ccc(Sc2cc(C)c(-c3csc(NC(=O)c4ccnc(F)c4)n3)c(C)c2)cc1` [Compound 126], the IC50 in the assay with Hela came to 40 nM; in the assay with K562 it was 20 nM; with MDA-MB-468, 50 nM; with MDA-MB-231 it was 30 nM.
On to `Cc1cc(S(C)(=O)=O)cc(C)c1-c1csc(NC(=O)c2ccncc2)n1` [Compound 127], for which the IC50 was determined as 840 nM with Hela, 530 nM with K562, 460 nM in the assay with MDA-MB-468 and 450 nM in the assay with MDA-MB-231.
The matching figures for `COc1ccc(Oc2cc(C)c(-c3csc(NC(=O)c4ccnc(N)c4)n3)c(C)c2)cc1` [Compound 128]: 240 nM, 190 nM, 160 nM and 160 nM.
On to `COc1ccc(S(=O)(=O)c2cc(C)c(-c3csc(NC(=O)c4ccncc4)n3)c(C)c2)cc1` [Compound 129], for which the IC50 in the assay on Hela came out at 270 nM; in the assay on K562, 190 nM; in the assay on MDA-MB-468, 270 nM; with MDA-MB-231, 200 nM.
As for `COc1ccc([S+]([O-])c2cc(C)c(-c3csc(NC(=O)c4ccncc4)n3)c(C)c2)cc1` (centres unmarked) [Compound 130], the IC50 in the assay on Hela was found to be 180 nM; in the assay with K562 it was 80 nM; with MDA-MB-468, 140 nM; in the assay with MDA-MB-231 it was 90 nM.
As for `COc1ccc(Oc2cc(C)c(-c3csc(NC(=O)c4ccncc4)n3)c(Cl)c2)cc1` [Compound 131], the IC50 amounted to 60 nM in the assay with Hela, 40 nM with K562, 50 nM with MDA-MB-468 and 40 nM in the assay with MDA-MB-231.

For the origin of these results see US8946268B2, “Modulators of HEC1 activity and methods therefor” (Taivex Therapeutics, Inc., priority 2010, dated 2015).
